Data: the supplement of paper PMC10307832

These cell lines were tested with COC1=C(C=C(C=C1)C2=CC3=NC=CN3C(=N2)NC4=C(C=CC=N4)C(=O)N)OC [BAY61-3606] + O=C(CCCCCCC(=O)Nc1ccccc1)NO [Vorinostat] (partner 1 µM) (assay: relative viability (nuclei count vs DMSO), 5 days (fraction); higher = more cells survive). Conditions: first compound 0.02 µM.
Procedure, shortened: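 A single step with final 0.05% Triton X-100, 1% formaldehyde and 1 ug/ml Hoechst fixed the cells and stained nuclei 5 days after treatment. Lung cancer cell lines in 1536-well plates had been treated by pin tool the day after seeding with one drug alone or a fixed anchor-drug dose plus five library-drug doses (not always all listed) in √10 steps, and nuclei were counted on 4× images. Relative viability is the ratio of nuclei in treated wells to nuclei in vehicle wells, taken as the median of duplicate plates.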

Row | Cell Line | relative viability
1 | NCI-H1651 | 0.62
2 | NCI-H1734 | 0.826
3 | NCI-H2009 | 0.703
4 | NCI-H596 | 0.726
5 | SK-LU-1 | 0.695
6 | SW 1573 | 0.817
7 | LCLC-97TM1 | 0.893
8 | NCI-H661 | 0.78
9 | NCI-H2228 | 0.713
10 | EMC-BAC-2 | 0.499
11 | NCI-H2087 | 0.673
12 | HCC-44 | 1.05
13 | NCI-H727 | 1.03
14 | LK-2 | 0.264
15 | NCI-H2126 | 0.799
16 | NCI-H1648 | 0.797
17 | NCI-H1793 | 0.842
18 | H3255 | 0.817
19 | COR-L23 | 0.564
20 | COR-L 105 | 0.938
21 | LC-2-ad | 0.821
22 | LU99A | 0.548
23 | ChaGo-K-1 | 0.72
24 | NCI-H358 | 0.697
25 | NCI-H322M | 0.985
26 | IA-LM | 0.947
27 | HCC-78 | 0.432
28 | NCI-H522 | 0.896
29 | LXF-289 | 0.802
30 | HCC-366 | 0.383

Same assay, conditions: first compound 0.06325 µM

Row | Cell Line | relative viability
31 | NCI-H2342 | 0.818
32 | RERF-LC-KJ | 0.684
33 | NCI-H1651 | 0.509
34 | NCI-H1734 | 0.804
35 | NCI-H2009 | 0.833
36 | NCI-H596 | 0.568
37 | SK-LU-1 | 0.83
38 | SW 1573 | 0.643
39 | LCLC-97TM1 | 0.818
40 | NCI-H661 | 0.825
41 | NCI-H2228 | 0.594
42 | EMC-BAC-2 | 0.385
43 | NCI-H2087 | 1.03
44 | HCC-44 | 1.05
45 | NCI-H727 | 1.12
46 | LK-2 | 0.297

Row | Cell Line | relative viability
47 | NCI-H2126 | 0.761
48 | NCI-H1648 | 0.44
49 | NCI-H1793 | 0.83
50 | H3255 | 0.8
51 | COR-L23 | 0.5
52 | COR-L 105 | 0.947
53 | LC-2-ad | 0.743
54 | LU99A | 0.399
55 | ChaGo-K-1 | 0.767
56 | NCI-H358 | 0.759
57 | NCI-H322M | 0.872
58 | IA-LM | 0.851
59 | HCC-78 | 0.423
60 | NCI-H522 | 0.869
61 | LXF-289 | 0.839
62 | HCC-366 | 0.385

Same assay, conditions: first compound 0.2 µM

Row | Cell Line | relative viability
63 | NCI-H2342 | 0.835
64 | RERF-LC-KJ | 0.704
65 | NCI-H1651 | 0.523
66 | NCI-H1734 | 0.651
67 | NCI-H2009 | 0.714
68 | NCI-H596 | 0.514
69 | SK-LU-1 | 0.755
70 | SW 1573 | 0.578
71 | LCLC-97TM1 | 0.534
72 | NCI-H661 | 0.773
73 | NCI-H2228 | 0.663
74 | EMC-BAC-2 | 0.6
75 | NCI-H2087 | 0.727
76 | HCC-44 | 1
77 | NCI-H727 | 1.07
78 | LK-2 | 0.301

Row | Cell Line | relative viability
79 | NCI-H2126 | 0.733
80 | NCI-H1648 | 0.648
81 | NCI-H1793 | 0.684
82 | H3255 | 0.749
83 | COR-L23 | 0.511
84 | COR-L 105 | 0.734
85 | LC-2-ad | 0.588
86 | LU99A | 0.48
87 | ChaGo-K-1 | 0.715
88 | NCI-H358 | 0.631
89 | NCI-H322M | 0.974
90 | IA-LM | 0.894
91 | HCC-78 | 0.444
92 | NCI-H522 | 0.839
93 | LXF-289 | 0.666
94 | HCC-366 | 0.175

Same assay, conditions: first compound 0.6325 µM

Row | Cell Line | relative viability
95 | NCI-H2342 | 0.867
96 | RERF-LC-KJ | 0.881
97 | NCI-H1651 | 0.539
98 | NCI-H1734 | 0.769
99 | NCI-H2009 | 0.734
100 | NCI-H596 | 0.771
101 | SK-LU-1 | 0.679
102 | SW 1573 | 0.815
103 | LCLC-97TM1 | 0.778
104 | NCI-H661 | 0.864
105 | NCI-H2228 | 0.634
106 | EMC-BAC-2 | 0.42
107 | NCI-H2087 | 0.359
108 | HCC-44 | 0.966
109 | NCI-H727 | 1.17
110 | LK-2 | 0.327

Row | Cell Line | relative viability
111 | NCI-H2126 | 0.747
112 | NCI-H1793 | 1.04
113 | H3255 | 0.75
114 | COR-L23 | 0.491
115 | COR-L 105 | 0.791
116 | LC-2-ad | 0.707
117 | LU99A | 0.434
118 | ChaGo-K-1 | 0.714
119 | NCI-H358 | 0.658
120 | NCI-H322M | 0.866
121 | IA-LM | 1.25
122 | HCC-78 | 0.553
123 | NCI-H522 | 0.733
124 | LXF-289 | 0.849
125 | HCC-366 | 0.345

Same assay, conditions: first compound 2 µM

Row | Cell Line | relative viability
126 | NCI-H2342 | 0.762
127 | RERF-LC-KJ | 0.614
128 | NCI-H1651 | 0.542
129 | NCI-H1734 | 0.441
130 | NCI-H2009 | 0.697
131 | NCI-H596 | 0.686
132 | SK-LU-1 | 0.504
133 | SW 1573 | 0.344
134 | LCLC-97TM1 | 0.589
135 | NCI-H661 | 0.779
136 | NCI-H2228 | 0.571
137 | EMC-BAC-2 | 0.425
138 | NCI-H2087 | 0.647
139 | HCC-44 | 1.26
140 | NCI-H727 | 1.24
141 | LK-2 | 0.306

Row | Cell Line | relative viability
142 | NCI-H2126 | 0.619
143 | NCI-H1648 | 0.706
144 | NCI-H1793 | 0.989
145 | H3255 | 0.86
146 | COR-L23 | 0.323
147 | COR-L 105 | 0.746
148 | LC-2-ad | 0.721
149 | LU99A | 0.401
150 | ChaGo-K-1 | 0.793
151 | NCI-H358 | 0.386
152 | NCI-H322M | 0.74
153 | IA-LM | 0.96
154 | HCC-78 | 0.41
155 | NCI-H522 | 0.661
156 | LXF-289 | 0.782
157 | HCC-366 | 0.244
